From patent publication US11484558B2, “Epizootic hemorrhagic disease virus—tel aviv university (EHDV-TAU)—oncolytic virus for treating cancer” (Ramot at Tel-Aviv University Ltd., priority 2017, dated 2022)

Legend:
LNCaP cells = test: Trypan blue exclusion assay of infected LNCaP cells; assay type: cell-based, human; conditions: for effect of inhibitor on EHDV-TAU-LNCaP-induced cell death: Q-VD-OPH 20 μM, Necrostatin-1 75 μM, 45 hours
Protocol: LNCaP cells were infected (+) or not (−) with EHDV-TAU-LNCaP (0.05 PFU/cell, for 45 hours) and treated (+) or not (−) with Q-VD-OPH (20 μM, for 45 hours during infection, or 20 hours during STS treatment), Necrostatin-1 (75 μM, for 45 hours) or staurosporine (STS, 1 μM, for 20 hours; serves as positive control of apoptosis induction). Graph depicts mean±SE (n=3) of the percentage of cell death under the indicated conditions. *p<0.05; **p<0.005.
LNCaP cells were infected or not with EHDV-TAU-LNCaP (0.05 PFU/cell, for 45 hours) and treated, or not, with IFNα or the indicated EpMs. Graph depicts mean±SE (n=5) of percentage of cell death under the indicated conditions; *p<0.05; ***p<0.0005.
Trypan blue exclusion assay—2×10^5 LNCaP cells/well in a 12-well plate were infected, or not, under the indicated experimental conditions. For each well, detached and attached cells were collected together and mixed with 0.5% trypan blue at a 1:1 ratio. Cells were classified by trypan blue exclusion by light microscopy. Trypan blue (0.5%) was from Beit Haemek Biological Industries, Israel (cat. #03-102-1B).

LNCaP-JAK1 cells = test: Immunoblot of NS3 in infected LNCaP-JAK1 cells; conditions: for effect of treatment on NS3 expression in EHDV-TAU-LNCaP-infected cells: LNCaP-JAK1, Baricitinib 0.5 μM, IFNα 200 U/ml, IFNγ 25 ng/ml, prior to and during infection

Nc1ncn([C@H]2C[C@H](O)[C@@H](CO)O2)c(=O)n1 [5AC, 5-Aza-2′-deoxycytidine] was tested, and the “effect on infection / virus-induced death” value (LNCaP cells; combination of 5AC and IFNα, compared to IFNα or 5AC alone) was “reduced infection to a greater and significant degree”.

CN1C(=O)C(Cc2c[nH]c3ccccc23)NC1=S (stereo not shown) [Necrostatin-1] was tested, and the “effect of inhibitor on EHDV-TAU-LNCaP-induced cell death” value (LNCaP cells) was “partial reduction”.

In the case of COC(=O)CC(NC(=O)C(NC(=O)c1ccc2ccccc2n1)C(C)C)C(=O)COc1c(F)cccc1F (stereo not shown) [Q-VD-OPh, Quinolyl-valyl-O-methylaspartyl-[-2,6-difluorophenoxy]-methyl ketone, reference compound], the “effect on NS3 expression in infected, IL-6-treated cells” value (LNCaP-JAK1 cells; LNCaP-JAK1, Q-VD-OPh 20 μM, IL-6 5 ng/ml) is reported as “failed to rescue NS3 expression” and the “effect of inhibitor on EHDV-TAU-LNCaP-induced cell death” value (LNCaP cells) is reported as “partial reduction”.

For O=C(O)[C@H](Cc1c[nH]c2ccccc12)N1C(=O)c2ccccc2C1=O [RG108, N-phthalyl-L-tryptophan], the “protection from EHDV-TAU-LNCaP-induced cell death” value (LNCaP cells; RG108 alone) was “partial protection” and the “effect on virus-induced cell death” value (LNCaP cells; combination of IFN and RG108, relative to untreated infected cells) was “reduced it to half”.

IFNα was tested, and the “effect of treatment on NS3 expression in EHDV-TAU-LNCaP-infected cells” value (LNCaP-JAK1 cells) was “abolished NS3 expression” and the “effect on EHDV-TAU-LNCaP-induced cell death” value (LNCaP cells; IFN alone) was “minimal reduction”.

In the case of “IL-6: Human IL-6 (PeproTech), pleiotropic cytokine”, the “effect on productive EHDV-TAU-LNCaP infection” value (LNCaP-JAK1 cells; LNCaP-JAK1, IL-6) is reported as “reduce productive EHDV-TAU-LNCaP infection”.

B1: IFNγ: human IFNγ (PeproTech) (protein, UniProt P01579 24-161, looked up)
Interferon gamma: QDPYVKEAENLKKYFNAGHSDVADNGTLFLGILKNWKEESDRKIMQSQIVSFYFKLFKNFKDDQSIQKSVETIKEDMNVKFFNSNKKKRDDFEKLTNYSVTDLNVQRKAIHELIQVMAELSPAAKTGKRKRSQMLFRG
With B1 the “effect of treatment on NS3 expression in EHDV-TAU-LNCaP-infected cells” value (LNCaP-JAK1 cells) was “abrogated NS3 production”.
